Assay [1] addresses T1, PARP1 (His6-PARP1, full length) (Homo sapiens, UniProt P09874).
T1 construct: His6-PARP1 (full length) can be substituted for His6-TNKS 1
The assay is described as follows: TR-FRET Binding Assay (Example 71), PARP1. The note with it: TR-FRET assay of Example 71 with His6-PARP1. As for the experimental part:
(§1) μHTS-TNKS-IWR2 TR-FRET Binding Assay (10 μL/well in BD1536-well plate, a single point)
Tankyrase 1 (TNKS1): 184.3 μM=5.2 mg/mL His6-TNKS1, MW=28.2 KDa (construct: 1088-1327, 1266M) in 20 mM Tris pH 8, 150 mM NaCl, 10% glycerol, and 0.5 mM TCEP. Alternatively, His6-tankyrase 2 (construct: 934-1166) (His6-TNKS2) or His6-PARP1 (full length) can be substituted for His6-TNKS 1.
(§2) Assay buffer 1a (AB1a) for TNKS dilution: 50 mM Tris, pH 7.4, 100 mM sodium chloride solution, 1 mM magnesium chloride solution, 1 mM DL-dithiothreitol solution, 0.2 mg/mL bovine serum albumin solution, 0.025% NP-40. Assay buffer 1b (AB 1b) for Biotin-IWR2 dilution: 50 mM Tris, pH 7.4, 100 mM sodium chloride solution, 1 mM magnesium chloride solution, 1 mM DL-dithiothreitol solution, 0.2 mg/mL bovine serum albumin solution, 0.05% NP-40 Assay buffer 1c (AB 1c) for compound dilution: 50 mM Tris, pH 7.4, 100 mM sodium chloride solution, 1 mM magnesium chloride solution, 1 mM DL-dithiothreitol solution, 0.2 mg/mL bovine serum albumin solution Assay buffer 2 (AB2) for Eu/APC: 50 mM Tris, pH 7.4, 100 mM sodium chloride solution, 1 mM magnesium chloride solution, 0.2 mg/mL bovine serum albumin solution
Prepare Biotinylated IWR2 stock solution (3.33× stock) for TOTL and compound wells: 200 nM Biotin-IWR2 in 5% DMSO/AB1b buffer
Prepare BLANK well stock solution: 5% DMSO/AB1b buffer Prepare POSITIVE CONTROL well stock solution (3.33× stock): 200 nM XAV939 in 200 nM Biotin-IWR2/5% DMSO/AB1b buffer Prepare TNKS1 stock solution (5× stock): 300 nM TNKS in AB1a buffer. (Alternatively, use TNKS2 or PARP1 stock solutions.) Prepare Eu/APC stock solution (5× stock): 3.5 nM Eu-SA/50 nM APC-His6Ab in AB2 buffer.
(§3) Add 25 μL/well 1.5% DMSO/AB1c buffer in each compound well to the compound concentration at 74 μM in 8.8% DMSO/AB1c buffer or in the 2 μL DMSO CONTROL wells (BLANK, TOTAL and POSITIVE wells) in the compound plate. Transfer 3 μL/well of above solution (solution 1,2,3) to an empty assay plate (BD1536-well plate) as follows: TOTAL and cpd wells: Solution 1 (Biotin-IWR2): BLANK wells: Solution 2 (No Biotin-IWR2): POSITIVE CONTROL wells: Solution 3 (Biotin-IWR2XAV939) Transfer 3 μL/well of the above diluted compound solutions or compound dilution buffer to the above assay plate. Add 2 μL/well of 300 nM TNKS stock solution (4) to every well in the above assay plate. Centrifuge the assay plate at 2100 rpm for 2 min. Incubate the assay plate at 26° C. for 30 minutes. Add 2 μL/well 3.5 nMEu/50 nM APC solution (5) to every well in the above assay plate. Centrifuge the assay plate at 2100 rpm for 2 min. Incubate the assay plate at 26° C. for 60 min. Read the assay plate immediately at excitation wavelength of 330 nm and emission wavelength of 615 and 665 nM in time resolved fluorescence mode.
. Representative compound data for the PARP1 assay is in TABLE 2 (below) Values are in μM.

In assay [2] the target is T2, tankyrase 2 (His6-TNKS2) (Homo sapiens, UniProt Q9H2K2).
T2 construct: His6-tankyrase 2 (construct: 934-1166) (His6-TNKS2)
T2 sequence (Q9H2K2 934-1166): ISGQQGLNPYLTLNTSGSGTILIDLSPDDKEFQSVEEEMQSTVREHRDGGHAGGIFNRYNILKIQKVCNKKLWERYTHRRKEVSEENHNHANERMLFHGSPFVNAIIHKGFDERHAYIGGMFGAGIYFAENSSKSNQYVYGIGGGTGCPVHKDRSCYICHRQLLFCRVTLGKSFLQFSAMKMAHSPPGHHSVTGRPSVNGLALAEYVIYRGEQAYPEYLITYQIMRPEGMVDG
Description: μHTS-TNKS-IWR2 TR-FRET Binding Assay (Example 71), TNKS2. The note with it: footnote 1: Tankyrase 1 and 2 inhibition assay in Example 71 (TR-FRET). As for the experimental part: as §1
Biotin-4-((1S,2R,6S,7R)-3,5-Dioxo-4-aza-tricyclo[5.2.1.0*2,6*]dec-8-en-4-yl)-N-(4-methyl-quinolin-8-yl)-benzamide (Biotin-IWR2): 10 mM Biotin-IWR2 stock in DMSO, stored at −20° C. Positive control: 10 mM 2-(4-Trifluoromethyl-phenyl)-3,5,7,8-tetrahydro-thiopyrano[4,3-d]pyrimidin-4-one (XAV939) in DMSO, stored at −20° C.
as §2
as §3, with “Transfer” for “Add 25 μL/well 1.5% DMSO/AB1c buffer in each compound well to the compound concentration at 74 μM in 8.8% DMSO/AB1c buffer or in the 2 μL DMSO CONTROL wells (BLANK, TOTAL and POSITIVE wells) in the compound plate. Transfer”, “min.” for “min. Read the assay plate immediately at excitation wavelength of 330 nm and emission wavelength of 615 and 665 nM in time resolved fluorescence mode.”

The target in assay [3] is T3, Tankyrase 1 (TNKS1) (Homo sapiens, UniProt O95271).
T3 construct: His6-TNKS1, MW=28.2 KDa (construct: 1088-1327, 1266M)
T3 sequence (O95271 1088-1327): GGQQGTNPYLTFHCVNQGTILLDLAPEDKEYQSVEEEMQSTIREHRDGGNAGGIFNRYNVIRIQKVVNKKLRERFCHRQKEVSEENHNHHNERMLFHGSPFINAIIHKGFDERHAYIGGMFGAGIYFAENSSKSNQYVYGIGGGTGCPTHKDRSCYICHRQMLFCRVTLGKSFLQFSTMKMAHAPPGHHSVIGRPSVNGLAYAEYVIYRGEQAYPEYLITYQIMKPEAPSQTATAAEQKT
The assay is described as follows: μHTS-TNKS-IWR2 TR-FRET Binding Assay (Example 71), TNKS1. As for the experimental part: as §1, §2
as §3, with “Transfer” for “Add 25 μL/well 1.5% DMSO/AB1c buffer in each compound well to the compound concentration at 74 μM in 8.8% DMSO/AB1c buffer or in the 2 μL DMSO CONTROL wells (BLANK, TOTAL and POSITIVE wells) in the compound plate. Transfer”, “min.” for “min. Read the assay plate immediately at excitation wavelength of 330 nm and emission wavelength of 615 and 665 nM in time resolved fluorescence mode.”

Drawing on US20140121231A1, “PYRANOPYRIDONE INHIBITORS OF TANKYRASE” (Hoffmann-La Roche, Inc., priority 2012, published 2014), this text covers IC50 for 19 molecules.

Each structure is given as a SMILES string. Bounds are passed on as bounds.

T1 sequence (P09874 whole entry, species assumed): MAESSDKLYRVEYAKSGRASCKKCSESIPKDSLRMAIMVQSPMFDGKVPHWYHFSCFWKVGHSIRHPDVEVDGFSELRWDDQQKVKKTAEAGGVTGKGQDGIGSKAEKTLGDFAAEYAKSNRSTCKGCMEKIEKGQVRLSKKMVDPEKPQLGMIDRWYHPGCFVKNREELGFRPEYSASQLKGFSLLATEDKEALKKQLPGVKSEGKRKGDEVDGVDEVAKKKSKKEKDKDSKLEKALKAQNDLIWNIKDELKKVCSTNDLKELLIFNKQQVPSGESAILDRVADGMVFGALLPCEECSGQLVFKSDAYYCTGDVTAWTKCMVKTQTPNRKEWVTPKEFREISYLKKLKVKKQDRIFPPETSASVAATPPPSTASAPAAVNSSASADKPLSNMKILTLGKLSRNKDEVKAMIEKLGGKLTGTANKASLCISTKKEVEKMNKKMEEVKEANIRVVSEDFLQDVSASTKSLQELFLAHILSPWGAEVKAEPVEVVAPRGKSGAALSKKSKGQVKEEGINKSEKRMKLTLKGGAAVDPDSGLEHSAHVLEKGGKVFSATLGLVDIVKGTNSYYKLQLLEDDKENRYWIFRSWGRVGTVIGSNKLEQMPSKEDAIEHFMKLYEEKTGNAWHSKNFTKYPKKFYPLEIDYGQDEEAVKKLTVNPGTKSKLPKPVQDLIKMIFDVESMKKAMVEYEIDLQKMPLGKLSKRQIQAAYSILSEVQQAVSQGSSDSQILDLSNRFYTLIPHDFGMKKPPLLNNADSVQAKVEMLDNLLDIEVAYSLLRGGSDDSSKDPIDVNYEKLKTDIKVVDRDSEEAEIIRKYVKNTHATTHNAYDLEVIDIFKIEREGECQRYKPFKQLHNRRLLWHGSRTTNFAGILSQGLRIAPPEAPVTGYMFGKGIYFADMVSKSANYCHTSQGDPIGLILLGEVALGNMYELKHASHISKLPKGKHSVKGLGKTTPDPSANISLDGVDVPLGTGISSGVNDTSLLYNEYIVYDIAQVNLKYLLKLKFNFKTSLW

Consider `CC(C)(C)C1Cc2[nH]c(=O)c3cccnc3c2CO1` (racemic) [Compound I-48, rac-2-tert-Butyl-1,2,4,10-tetrahydro-3-oxa-5,10-diaza-phenanthren-9-one], for which the figures for the IC50 in assay [1], in assay [2] and in assay [3] were 437 nM, 55.4 nM and 34.6 nM, respectively.
On the same counts, the results for `Cc1ccc2c(=O)[nH]c3c(c2n1)COC(C(C)(C)C)C3` (racemic) [Compound I-49, rac-2-tert-Butyl-6-methyl-1,2,4,10-tetrahydro-3-oxa-5,10-diaza-phenanthren-9-one] are 3050 nM, 77.5 nM and 514 nM.
On the same counts, the results for `O=C(C1CCOCC1)N1CCC(C2Cc3[nH]c(=O)c4ccccc4c3CO2)CC1` (racemic) [Compound I-50, rac-2-[1-(Tetrahydro-pyran-4-carbonyl)-piperidin-4-yl]-1,2,4,10-tetrahydro-3-oxa-10-aza-phenanthren-9-one] are 104 nM, 44.2 nM and 35.6 nM.
The matching figures for `CC(C)(O)c1ccc2c(=O)[nH]c3c(c2c1)COC(C(C)(C)C)C3` (racemic) [Compound I-53, rac-2-tert-Butyl-6-(1-hydroxy-1-methyl-ethyl)-1,2,4,10-tetrahydro-3-oxa-10-aza-phenanthren-9-one]: greater than 50000 nM, 13900 nM and 1100 nM.
As to `CC(C)(C)C1Cc2[nH]c(=O)c3ccc(C#N)cc3c2CO1` (racemic) [Compound I-56, rac-2-tert-Butyl-9-oxo-1,4,9,10-tetrahydro-2H-3-oxa-10-aza-phenanthrene-6-carbonitrile], the concentration for half-maximal inhibition (IC50) was greater than 50000 nM in assay [1], 1500 nM in assay [2] and 133 nM in assay [3].
On the same counts, the results for `CC1(C(=O)N2CCC(C3Cc4[nH]c(=O)c5cccnc5c4CO3)CC2)CC1` (racemic) [Compound I-57, rac-2-[1-(1-methyl-cyclopropanecarbonyl)-piperidin-4-yl]-1,2,4,10-tetrahydro-3-oxa-5,10-diaza-phenanthren-9-one] are 38.6 nM, 45.5 nM and 40.2 nM.
As for `Cc1cncc2c(=O)[nH]c3c(c12)COC(C(C)(C)C)C3` (racemic) [Compound I-58, rac-7-tert-Butyl-4-methyl-5,7,8,9-tetrahydro-6-oxa-2,9-diaza-phenanthren-10-one], the IC50 in assay [1] was 328 nM; in assay [2], 25.7 nM; in assay [3] it was 25.9 nM.
On the same counts, the results for `Cc1cccc2c(=O)[nH]c3c(c12)COC(C1CCOCC1)C3` (racemic) [Compound I-60, rac-5-Methyl-2-(tetrahydro-pyran-4-yl)-1,2,4,10-tetrahydro-3-oxa-10-aza-phenanthren-9-one] are 79.7 nM, 17.9 nM and 24.1 nM.
For the molecule `Cc1cccc2c(=O)[nH]c3c(c12)COC(C1CCN(C(=O)C2(C)CC2)CC1)C3` (racemic) [Compound I-61, rac-5-Methyl-2-[1-(1-methyl-cyclopropanecarbonyl)-piperidin-4-yl]-1,2,4,10-tetrahydro-3-oxa-10-aza-phenanthren-9-one], the concentration for half-maximal inhibition (IC50) in assay [1] amounted to 25.9 nM; in assay [2], 21 nM; in assay [3], 17.5 nM.
On the same counts, the results for `Cc1cccc2c(=O)[nH]c3c(c12)COC(C1CCN(C(=O)OC(C)(C)C)CC1)C3` (racemic) [Compound I-62, rac-4-(5-Methyl-9-oxo-1,4,9,10-tetrahydro-2H-3-oxa-10-aza-phenanthren-2-yl)-piperidine-1-carboxylic acid tert-butyl ester] are 38.1 nM, 23.7 nM and 26.5 nM.
On the same counts, the results for `Cc1cccc2c(=O)[nH]c3c(c12)COC(C1CCN(C(=O)C2CC2)CC1)C3` (racemic) [Compound I-63, rac-2-(1-Cyclopropanecarbonyl-piperidin-4-yl)-5-methyl-1,2,4,10-tetrahydro-3-oxa-10-aza-phenanthren-9-one] are 52.6 nM, 26.9 nM and 28.3 nM.
The matching figures for `Cc1cccc2c(=O)[nH]c3c(c12)COC(C(C)(C)O)C3` (racemic) [Compound I-64, rac-2-(1-Hydroxy-1-methyl-ethyl)-5-methyl-1,2,4,10-tetrahydro-3-oxa-10-aza-phenanthren-9-one]: 44.1 nM, 36.7 nM and 32 nM.
In the case of `CC1(C2Cc3[nH]c(=O)c4ccccc4c3CO2)COC1` (racemic) [Compound I-65, rac-2-(3-Methyl-oxetan-3-yl)-1,2,4,10-tetrahydro-3-oxa-10-aza-phenanthren-9-one], the IC50 in assay [1] came out at 43 nM; in assay [2], 101 nM; in assay [3], 81.4 nM.
On the same counts, the results for `O=c1[nH]c2c(c3ccccc13)CO[C@H](C1CCCC1)C2` (single isomer, unassigned) [Compound I-11] are 37.1 nM, 102 nM and 31.5 nM.
In the case of `O=c1[nH]c2c(c3ccccc13)CO[C@@H](C1CCCC1)C2` (single isomer, unassigned) [Compound I-12], the values for the IC50 in assay [1], in assay [2] and in assay [3] were 30.6 nM, 19.4 nM and 16 nM, respectively.
The matching figures for `CC(C)(C)OC(=O)N1CCC([C@@H]2Cc3[nH]c(=O)c4ccccc4c3CO2)CC1` (single isomer, unassigned) [Compound I-54]: 115 nM, 25.7 nM and 21.4 nM.
For the molecule `CC(C)(C)OC(=O)N1CCC([C@H]2Cc3[nH]c(=O)c4ccccc4c3CO2)CC1` (single isomer, unassigned) [Compound I-55], the results for the IC50 in assay [1], in assay [2] and in assay [3] were 125 nM, 99.2 nM and 43.2 nM, respectively.
As to `O=c1[nH]c2c(c3ccccc13)COCC2` [Compound I-3, 1,2,4,10-Tetrahydro-3-oxa-10-aza-phenanthren-9-one], the IC50 is 281 nM in assay [1], 636 nM in assay [2] and 421 nM in assay [3].
On the same counts, the results for `O=c1[nH]c2c(c3ccccc13)COC1(CCCC1)C2` [Compound I-9, 1,5′-Dihydrospiro[cyclopentane-1,3′-pyrano[4,3-c]isoquinolin]-6′(4′H)-one] are 2270 nM, 144 nM and 72.9 nM.
